According to ChEMBL document CHEMBL1201862, “PubChem BioAssay data set” (2004):
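48-hour exposure; five concentrations; linearly interpolated endpoints. Abbreviation: GI50, concentration required for 50% inhibition of growth.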 Calls of active or inactive are those of the source. Cut-off read from the data, not from the text of the source: active = GI50 up to about 1.1 µM and inactive = higher.

Assays:
Test in all cases: DTP human tumour cell line panel, 48 h
786-0 = test system: 786-0
A498 = test system: A498
A549 = test system: A549
ACHN = test system: ACHN
BT-549 = test system: BT-549
CAKI-1 = test system: CAKI-1
CCRF-CEM = test system: CCRF-CEM
COLO 205 = test system: COLO 205
DU-145 = test system: DU-145
EKVX = test system: EKVX
HCC 2998 = test system: HCC 2998
HCT-116 = test system: HCT-116
HCT-15 = test system: HCT-15
HL-60 = test system: HL-60
HOP-62 = test system: HOP-62
HOP-92 = test system: HOP-92
HT-29 = test system: HT-29
Hs-578T = test system: Hs-578T
IGROV-1 = test system: IGROV-1
K562 = test system: K562
KM12 = test system: KM12
LOX IMVI = test system: LOX IMVI
M14 = test system: M14
MCF7 = test system: MCF7
MDA-MB-231 = test system: MDA-MB-231
MDA-MB-435 = test system: MDA-MB-435
MDA-N = test system: MDA-N
MOLT-4 = test system: MOLT-4
Malme-3M = test system: Malme-3M
NCI-H226 = test system: NCI-H226
NCI-H23 = test system: NCI-H23
NCI-H460 = test system: NCI-H460
NCI-H522 = test system: NCI-H522
NCI/ADR-RES = test system: NCI/ADR-RES
OVCAR-3 = test system: OVCAR-3
OVCAR-4 = test system: OVCAR-4
OVCAR-5 = test system: OVCAR-5
PC-3 = test system: PC-3
RPMI-8226 = test system: RPMI-8226
RXF 393 = test system: RXF 393
SF-268 = test system: SF-268
SF-295 = test system: SF-295
SF-539 = test system: SF-539
SK-MEL-28 = test system: SK-MEL-28
SK-MEL-2 = test system: SK-MEL-2
SK-MEL-5 = test system: SK-MEL-5
SK-OV-3 = test system: SK-OV-3
SN12C = test system: SN12C
SNB-75 = test system: SNB-75
SR = test system: SR
SW-620 = test system: SW-620
T47D = test system: T47D
TK-10 = test system: TK-10
U-251 = test system: U-251
UACC-257 = test system: UACC-257
UACC-62 = test system: UACC-62
UO-31 = test system: UO-31
OVCAR-8 = test system: OVCAR-8
SNB-19 = test system: SNB-19

Measured: GI50

COc1cc2c(cc1OC)C(=O)/C(=C/c1cc(C)c(O)c(C)c1)C2
inactive: A498 > 21.2 µM | BT-549 > 100 µM | COLO 205 5.02 µM | HOP-92 > 100 µM | HT-29 5.19 µM | NCI-H226 23.8 µM | OVCAR-4 > 100 µM | OVCAR-5 1.63 µM | SK-MEL-28 > 75.7 µM | T47D > 100 µM | TK-10 > 76.7 µM | UO-31 > 100 µM
< 0.01 µM: HCT-15
active: 786-0 < 0.0184 µM | A549 < 0.0165 µM | ACHN 0.0603 µM | CAKI-1 0.0803 µM | CCRF-CEM < 0.01 µM | DU-145 < 0.01 µM | EKVX < 0.01 µM | HCC 2998 < 0.0407 µM | HCT-116 < 0.0112 µM | HL-60 < 0.01 µM | HOP-62 < 0.01 µM | Hs-578T < 0.01 µM | IGROV-1 < 0.0166 µM | K562 < 0.01 µM | KM12 < 0.01 µM | LOX IMVI < 0.0259 µM | M14 < 0.01 µM | MCF7 < 0.0148 µM | MDA-MB-231 0.0171 µM | MDA-MB-435 < 0.01 µM | MDA-N < 0.01 µM | MOLT-4 < 0.01 µM | Malme-3M < 0.01 µM | NCI-H23 < 0.01 µM | NCI-H460 < 0.01 µM | NCI-H522 < 0.01 µM | NCI/ADR-RES 0.403 µM | OVCAR-3 0.0115 µM | PC-3 < 0.01 µM | RPMI-8226 < 0.01 µM | RXF 393 < 0.0504 µM | SF-268 < 0.0143 µM | SF-295 < 0.018 µM | SF-539 < 0.01 µM | SK-MEL-2 < 0.01 µM | SK-MEL-5 < 0.01 µM | SK-OV-3 < 0.01 µM | SN12C 0.0244 µM | SNB-75 < 0.01 µM | SR < 0.01 µM | SW-620 < 0.0106 µM | U-251 < 0.01 µM | UACC-257 0.755 µM | UACC-62 < 0.0168 µM

[N-]=[N+]=NC1(N=[N+]=[N-])C(=O)NN=C(c2ccccc2)C1=O (stereo not drawn)
> 100 µM: HCT-15
inactive: 786-0 > 100 µM | A498 > 100 µM | A549 > 100 µM | ACHN > 100 µM | BT-549 > 100 µM | CCRF-CEM 32.2 µM | COLO 205 > 100 µM | DU-145 > 100 µM | EKVX > 100 µM | HCC 2998 > 100 µM | HCT-116 16.8 µM | HL-60 35.3 µM | HOP-62 > 100 µM | HOP-92 > 100 µM | HT-29 > 100 µM | Hs-578T > 100 µM | IGROV-1 > 100 µM | K562 38.9 µM | KM12 > 100 µM | LOX IMVI 37.7 µM | M14 > 100 µM | MCF7 62.7 µM | MDA-MB-231 > 100 µM | MDA-MB-435 18.4 µM | MDA-N 20.7 µM | MOLT-4 28.8 µM | Malme-3M 7.18 µM | NCI-H226 > 100 µM | NCI-H23 > 100 µM | NCI-H460 > 100 µM | NCI-H522 > 100 µM | NCI/ADR-RES > 100 µM | OVCAR-3 68.4 µM | OVCAR-4 57.4 µM | OVCAR-8 82.2 µM | PC-3 > 100 µM | RPMI-8226 41.3 µM | RXF 393 45.5 µM | SF-268 13 µM | SF-295 61.4 µM | SF-539 > 100 µM | SK-MEL-28 16.3 µM | SK-OV-3 > 100 µM | SN12C > 100 µM | SNB-75 > 100 µM | SR 32.7 µM | SW-620 50.9 µM | T47D 31.1 µM | TK-10 > 100 µM | U-251 > 100 µM | UACC-257 97.5 µM | UACC-62 57.7 µM | UO-31 > 100 µM

O=C(c1ccc(Cl)cc1Cl)N(Cc1cccnc1)C(=S)N(Cc1cccnc1)C(=O)c1ccc(Cl)cc1Cl
3.12 µM: HCT-15
active: RPMI-8226 0.678 µM
inactive: 786-0 2.12 µM | A498 10.3 µM | A549 19 µM | ACHN 9.62 µM | BT-549 3.72 µM | CAKI-1 11.6 µM | CCRF-CEM 1.86 µM | COLO 205 2.08 µM | DU-145 3.39 µM | EKVX 15.7 µM | HCC 2998 3.4 µM | HCT-116 2.48 µM | HL-60 3.55 µM | HOP-62 2.37 µM | HOP-92 3.83 µM | HT-29 2.38 µM | Hs-578T 21 µM | K562 3.52 µM | KM12 2.96 µM | LOX IMVI 3.64 µM | M14 3.01 µM | MCF7 2.58 µM | MDA-MB-231 2.75 µM | MDA-MB-435 17.7 µM | MDA-N 2.31 µM | MOLT-4 4.06 µM | Malme-3M 16.4 µM | NCI-H226 16.7 µM | NCI-H23 12.2 µM | NCI-H460 15.5 µM | NCI-H522 2.94 µM | NCI/ADR-RES 15.5 µM | OVCAR-3 2.67 µM | OVCAR-4 2.72 µM | OVCAR-5 10.7 µM | OVCAR-8 3.35 µM | PC-3 2.4 µM | RXF 393 6.43 µM | SF-268 4.68 µM | SF-295 22.2 µM | SF-539 2.22 µM | SK-MEL-28 10.9 µM | SK-MEL-2 3.58 µM | SK-MEL-5 3.33 µM | SK-OV-3 19.3 µM | SN12C 4.68 µM | SNB-19 12 µM | SNB-75 4.07 µM | SR 3.4 µM | SW-620 3.68 µM | T47D 11.4 µM | TK-10 3.77 µM | U-251 3.15 µM | UACC-257 6.32 µM | UACC-62 10.3 µM | UO-31 4.26 µM

COc1ccc(C(C)NNC(=O)c2cc[n+]([BH2-]C#N)cc2)c(OC)c1 (stereo not drawn)
inactive: 786-0 > 100 µM | A498 > 100 µM | A549 > 100 µM | ACHN > 100 µM | BT-549 > 100 µM | CAKI-1 > 100 µM | CCRF-CEM > 100 µM | COLO 205 > 100 µM | DU-145 > 100 µM | EKVX > 100 µM | HCC 2998 > 100 µM | HL-60 > 100 µM | HOP-92 > 100 µM | Hs-578T > 100 µM | IGROV-1 > 100 µM | K562 > 100 µM | KM12 > 100 µM | LOX IMVI > 100 µM | M14 > 100 µM | MCF7 > 100 µM | MDA-MB-231 > 100 µM | MDA-MB-435 > 100 µM | MDA-N > 100 µM | MOLT-4 > 100 µM | Malme-3M > 100 µM | NCI-H226 > 100 µM | NCI-H460 > 100 µM | NCI-H522 > 100 µM | NCI/ADR-RES > 100 µM | OVCAR-3 > 100 µM | OVCAR-4 69.5 µM | OVCAR-5 > 100 µM | OVCAR-8 > 100 µM | PC-3 > 100 µM | RPMI-8226 > 100 µM | RXF 393 > 100 µM | SF-268 > 100 µM | SF-295 > 100 µM | SF-539 > 100 µM | SK-MEL-28 > 100 µM | SK-MEL-2 > 100 µM | SK-MEL-5 > 100 µM | SN12C > 100 µM | SNB-19 > 100 µM | SNB-75 > 100 µM | SR > 100 µM | SW-620 > 100 µM | T47D > 100 µM | TK-10 > 100 µM | U-251 > 100 µM | UACC-257 > 100 µM | UACC-62 > 100 µM | UO-31 > 100 µM
> 100 µM: HCT-15
